ChEMBL document CHEMBL4831477, “Structure-Enabled Discovery of Novel Macrocyclic Inhibitors Targeting Glutaminase 1 Allosteric Binding Site” (J Med Chem, 2021)
Values after ≈ are worked out from the molar mass of the structure shown.

How the values were obtained:
[1] = Distribution coefficient, logD of the compound at pH 7.4 by LC-MS based shake-flask method; assay type: physicochemical; details: octanol/water
[2] = system: MDA-MB-436; experiment: Antiproliferative activity against human MDA-MB-436 cells assessed as reduction in cell viability incubated for 72 hrs by MTT assay; assay type: functional, cell-based; details: MDA-MB-436, 72 h
[3] = target: T1, Glutaminase kidney isoform, mitochondrial (Homo sapiens, UniProt O94925); experiment: Inhibition of recombinant human GLS1 expressed in Escherichia coli strain BL21 (DE3) preincubated for 10 mins before glutamine addition and measured after 60 mins by bovine liver glutamate dehydrogenase based coupled enzyme assay
T1 sequence (O94925 whole entry): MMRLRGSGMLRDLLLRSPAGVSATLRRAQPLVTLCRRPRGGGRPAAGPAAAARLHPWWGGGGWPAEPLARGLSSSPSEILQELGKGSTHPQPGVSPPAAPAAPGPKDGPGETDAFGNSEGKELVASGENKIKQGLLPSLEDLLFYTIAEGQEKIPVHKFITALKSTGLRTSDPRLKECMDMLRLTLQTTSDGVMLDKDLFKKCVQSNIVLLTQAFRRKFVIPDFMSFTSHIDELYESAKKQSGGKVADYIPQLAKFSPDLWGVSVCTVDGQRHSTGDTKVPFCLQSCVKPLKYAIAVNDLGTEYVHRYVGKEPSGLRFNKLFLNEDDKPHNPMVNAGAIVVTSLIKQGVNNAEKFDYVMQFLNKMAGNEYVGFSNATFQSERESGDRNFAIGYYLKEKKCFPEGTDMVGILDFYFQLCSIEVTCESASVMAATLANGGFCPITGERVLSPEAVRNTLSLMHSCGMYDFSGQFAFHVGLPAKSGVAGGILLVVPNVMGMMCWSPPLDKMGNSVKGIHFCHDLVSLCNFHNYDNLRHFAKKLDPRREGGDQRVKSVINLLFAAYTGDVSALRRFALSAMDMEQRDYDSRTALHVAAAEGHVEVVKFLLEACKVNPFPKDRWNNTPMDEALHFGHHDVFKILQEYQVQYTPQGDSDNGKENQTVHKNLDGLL

[4] = target: T2, Glutaminase kidney isoform, mitochondrial (Homo sapiens) (UniProt O94925)
T2 sequence (whole entry): T1 sequence (O94925 whole entry)
Description: Binding affinity to human GLS1 expressed in Escherichia coli strain BL21 (DE3) assessed as change in melting temperature by SYPRO orange dye based protein thermal shift assay

[5] = Intrinsic aqueous solubility of compound at pH 7.4 by LC-MS based shake-flask method; assay type: physicochemical; details: read-out: Intrinsic_solubility
[6] = system: HCT-116; experiment: Antiproliferative activity against human HCT116 cells assessed as reduction in cell viability incubated for 72 hrs by MTT assay; assay type: functional, cell-based; details: HCT-116, 72 h
[7] = system: HCT-116; experiment: Inhibition of colony formation in human HCT-116 cells incubated for 14 days by crystal violet staining based assay; assay type: functional, cell-based; details: dose 0.1-2 µM, time 14.0 day
[8] = Half life in Sprague-Dawley rat at 200 mg/kg, po measured upto 72 hrs by LC-MS/MS analysis; assay type: ADME, organism-based; details: in vivo
[9] = AUC(0 to t) in Sprague-Dawley rat at 200 mg/kg, po measured upto 72 hrs by LC-MS/MS analysis; assay type: ADME, organism-based; parameters: route oral, dose 200 mg/kg, time <=72; details: in vivo
[10] = Metabolic stability in human plasma assessed as compound remaining after 2 hrs by LC-MS/MS analysis; assay type: ADME, cell-free; details: read-out: Stability
[11] = AUC(0 to t) in Sprague-Dawley rat at 5 mg/kg, iv measured upto 72 hrs by LC-MS/MS analysis; assay type: ADME, organism-based; parameters: route intravenous, dose 5 mg/kg, time <=72; details: in vivo
[12] = Metabolic stability in mouse plasma assessed as compound remaining after 2 hrs by LC-MS/MS analysis; assay type: ADME, cell-free; details: read-out: Stability
[13] = Clearance in Sprague-Dawley rat at 200 mg/kg, po measured upto 72 hrs by LC-MS/MS analysis; assay type: ADME, organism-based; details: Sprague-Dawley, in vivo
[14] = Metabolic stability in mouse liver microsomes assessed as clearance at 10 uM preincubated for 5 mins followed by NADPH addition by LC-MS/MS analysis; assay type: ADME, Microsome; details: read-out: CLH
[15] = Oral bioavailability in Sprague-Dawley rat at 200 mg/kg measured upto 72 hrs by LC-MS/MS analysis; assay type: ADME, organism-based; details: in vivo
[16] = AUC(0 to infinity) in Sprague-Dawley rat at 5 mg/kg, iv measured upto 72 hrs by LC-MS/MS analysis; assay type: ADME, organism-based; parameters: route intravenous, dose 5 mg/kg, time <=72; details: in vivo, 72 h
[17] = Clearance in Sprague-Dawley rat at 5 mg/kg, iv measured upto 72 hrs by LC-MS/MS analysis; assay type: ADME, organism-based; details: in vivo, 5 mg/kg, 72 h
[18] = Apparent volume of distribution in Sprague-Dawley rat at 5 mg/kg, iv measured upto 72 hrs by LC-MS/MS analysis; assay type: ADME, organism-based; details: in vivo, read-out: Vz
[19] = Toxicity in BALB/c nude mouse xenografted with human HCT-116 cells assessed as tolerability at 200 mg/kg, po administered twice daily measured after 28 days; assay type: organism-based; details: in vivo, 672 h, time 28 day
[20] = Metabolic stability in human liver microsomes assessed as half life at 10 uM preincubated for 5 mins followed by NADPH addition by LC-MS/MS analysis; assay type: ADME, Microsome
[21] = Half life in Sprague-Dawley rat at 5 mg/kg, iv measured upto 72 hrs by LC-MS/MS analysis; assay type: ADME, organism-based; details: in vivo
[22] = Metabolic stability in human liver microsomes assessed as clearance at 10 uM preincubated for 5 mins followed by NADPH addition by LC-MS/MS analysis; assay type: ADME, Microsome; details: read-out: CLH
[23] = Cmax in BALB/c nude mouse plasma xenografted with human HCT-116 cells at 200 mg/kg, po administered twice daily for 28 days; assay type: ADME, organism-based; parameters: route oral, time 28 day, dose 200 mg/kg
[24] = Cmax in Sprague-Dawley rat at 200 mg/kg, po measured upto 72 hrs by LC-MS/MS analysis; assay type: ADME, organism-based; parameters: route oral, dose 200 mg/kg, time <=72; details: in vivo
[25] = Apparent volume of distribution in Sprague-Dawley rat at 200 mg/kg, po measured upto 72 hrs by LC-MS/MS analysis; assay type: ADME, organism-based; details: in vivo
[26] = Metabolic stability in mouse liver microsomes assessed as half life at 10 uM preincubated for 5 mins followed by NADPH addition by LC-MS/MS analysis; assay type: ADME, Microsome
[27] = Free plasma protein in mouse; assay type: ADME, cell-free
[28] = system: HCT-116; experiment: Antitumor activity against human HCT-116 cells xenografted in BALB/c nude mouse assessed as tumor growth inhibition at 200 mg/kg, po administered twice daily measured after 28 days; assay type: functional; details: time 28 day
[29] = AUC(0 to infinity) in Sprague-Dawley rat at 200 mg/kg, po measured upto 72 hrs by LC-MS/MS analysis; assay type: ADME, organism-based; parameters: route oral, dose 200 mg/kg, time <=72; details: Sprague-Dawley, in vivo
[30] = fCmax in BALB/c nude mouse plasma xenografted with human HCT-116 cells at 200 mg/kg, po administered twice daily for 28 days; assay type: ADME, organism-based; details: in vivo, 672 h, time 28 day
[31] = Toxicity in BALB/c nude mouse xenografted with human HCT-116 cells assessed as body weight loss at 200 mg/kg, po administered twice daily for 28 days and measured every 3 days; assay type: organism-based; details: in vivo, 672 h, time 28 day

O=C1CCc2cccc(c2)OCC/C=C/CCCC(=O)Nc2nnc(s2)CCCCc2ccc(nn2)N1
logD ([1]; read-out: logD): 3.08 | IC50 [2]: 6300 nM | IC50 [3]: 372 nM | ΔTm [4]: 11.7 °C | solubility thermodynamic [5]: 2.05 µg/mL (≈ 3.94 µM) | IC50 [6]: 1450 nM

O=C1Cc2cccc(c2)OC/C=C/COc2cccc(c2)CC(=O)NC2=NN=C(CCCCC3=NN=C(N1)S3)S2
logD ([1]; read-out: logD): 2.9 | IC50 [2]: 510 nM | IC50 [3]: 41 nM | ΔTm [4]: 16.5 °C | solubility thermodynamic [5]: 0.34 µg/mL (≈ 0.59 µM) | inhibition [7]: Dose-Dependent Effect | IC50 [6]: 280 nM

O=C(Cc1ccccc1)Nc1nnc(CCSCCc2nnc(NC(=O)Cc3ccccc3)s2)s1
logD ([1]; read-out: logD): 2.86 | IC50 [2]: 5080 nM | IC50 [6]: 3910 nM

O=C1Cc2ccccc2OCCCC/C=C/CCCCOc2cccc(c2)CC(=O)Nc2nnc(s2)CCCCc2ccc(nn2)N1
logD ([1]; read-out: logD): 3.72 | IC50 [2]: 710 nM | IC50 [3]: 37 nM | ΔTm [4]: 17.7 °C | solubility thermodynamic [5]: 1.09 µg/mL (≈ 1.66 µM) | IC50 [6]: 380 nM

O=C(Cc1cccc(OC(F)(F)F)c1)Nc1ccc(CCCCc2nnc(NC(=O)Cc3ccccn3)s2)nn1
half-life [8]: 192 min | logD [1]: 2.24 | IC50 [2]: 430 nM | AUC(0-t) at 72 h [9]: 18900 ng·h/mL | remaining at 2 h [10]: 84% | AUC(0-t) at 72 h [11]: 2380 ng·h/mL | remaining at 2 h [12]: 72% | CL/F [13]: 187 mL/min/kg | microsomal CLint at 10 µM [14]: 12.3 µL/min/mg | bioavailability [15]: 19% | AUC [16]: 2431 µg·h/L | CL [17]: 8.1 L/h/kg | Vd [18]: 26.1 L/kg | Activity [19]: Non-Toxic | half-life at 10 µM [20]: 84 min | half-life [21]: 222 min | microsomal CLint at 10 µM [22]: 9.7 µL/min/mg | Cmax [23]: 3.01 µM | Cmax [24]: 1720 ng/mL | Vz [25]: 60.9 L/kg | half-life at 10 µM [26]: 63 min | fraction unbound [27]: 0.103 | TGI [28]: 45% | AUC(0-inf) [29]: 18900 ng·h/mL | fCmax [30]: 0.31 µM | Activity [31]: Non-Toxic | IC50 [6]: 110 nM

O=C1Cc2ccc(cc2)OCC/C=C/CCOc2ccc(cc2)CC(=O)Nc2nnc(s2)CCCCc2nnc(s2)N1
logD ([1]; read-out: logD): 3.52 | IC50 [2]: 1900 nM | IC50 [3]: 80 nM | ΔTm [4]: 13.9 °C | solubility thermodynamic [5]: 0.33 µg/mL (≈ 0.546 µM) | inhibition [7]: Dose-Dependent Effect | IC50 [6]: 960 nM

O=C1Cc2ccc(cc2)OC/C=C/COc2ccc(cc2)CC(=O)Nc2nnc(s2)CCCCc2nnc(s2)N1
logD ([1]; read-out: logD): 2.98 | IC50 [2]: 790 nM | IC50 [3]: 76 nM | ΔTm [4]: 16.1 °C | solubility thermodynamic [5]: 0.36 µg/mL (≈ 0.624 µM) | IC50 [6]: 420 nM

C=CCCOc1cccc(CC(=O)Nc2ccc(CCCCc3nnc(NC(=O)Cc4cccc(OCCC=C)c4)s3)nn2)c1
IC50 [3]: 68 nM

O=C1Cc2cccc(c2)OCCC/C=C/CCCOc2cccc(c2)CC(=O)NC2=NN=C(CCCCC3=NN=C(N1)S3)S2
logD ([1]; read-out: logD): 3.49 | IC50 [2]: 820 nM | IC50 [3]: 82 nM | ΔTm [4]: 16.7 °C | solubility thermodynamic [5]: 0.25 µg/mL (≈ 0.395 µM) | IC50 [6]: 510 nM
